Laboratory results published in ChEMBL document CHEMBL6127124, “Structure-Activity Relationships and Discovery of (S)-5-(tert-Butyl)-11-(difluoromethoxy)-9-methoxy-2-oxo-1,2,5,6-tetrahydropyrido[2',1':2,3]imidazo[4,5-h]quinoline-3-carboxylic Acid (AB-161), a Novel Orally Available and Liver-Centric HBV RNA Destabilizer” (J Med Chem, 2024).
Converted amounts (≈) assume the structure as drawn.

How the values were obtained:
[1] = Metabolic stability in Sprague-Dawley rat liver microsomes assessed as clearance at 0.3 uM preincubated for 5 mins followed by NADPH addition measured upto 60 mins by LC-MS/MS analysis; assay type: ADME, Microsome; conditions: time < 65 min, read-out: CLH
[2] = Metabolic stability in cynomolgous monkey liver microsomes assessed as clearance at 0.3 uM preincubated for 5 mins followed by NADPH addition measured upto 60 mins by LC-MS/MS analysis; assay type: ADME, Macaca fascicularis, Microsome; conditions: cynomolgus monkey, read-out: CLH
[3] = Ratio of drug concentration in lung to plasma of Beagle dog at 10 mg/kg, po measured for 12 hrs by LC-MS/MS analysis; assay type: ADME, organism-based, Canis lupus familiaris; conditions: lung (relative to plasma)
[4] = Metabolic stability in human liver microsomes assessed as clearance at 0.3 uM preincubated for 5 mins followed by NADPH addition measured upto 60 mins by LC-MS/MS analysis; assay type: ADME, Microsome; conditions: time < 65 min, read-out: CLH
Cytochrome P450 2B6 = biological target: T1, Cytochrome P450 2B6 (Homo sapiens, UniProt P20813); assay: Inhibition of CYP2B6 in human liver microsomes using bupropion as substrate preincubated for 30 min followed by NADPH addition measured after 12 mins by LC-MS/MS analysis; assay type: ADME, Microsome
T1 sequence (P20813 whole entry): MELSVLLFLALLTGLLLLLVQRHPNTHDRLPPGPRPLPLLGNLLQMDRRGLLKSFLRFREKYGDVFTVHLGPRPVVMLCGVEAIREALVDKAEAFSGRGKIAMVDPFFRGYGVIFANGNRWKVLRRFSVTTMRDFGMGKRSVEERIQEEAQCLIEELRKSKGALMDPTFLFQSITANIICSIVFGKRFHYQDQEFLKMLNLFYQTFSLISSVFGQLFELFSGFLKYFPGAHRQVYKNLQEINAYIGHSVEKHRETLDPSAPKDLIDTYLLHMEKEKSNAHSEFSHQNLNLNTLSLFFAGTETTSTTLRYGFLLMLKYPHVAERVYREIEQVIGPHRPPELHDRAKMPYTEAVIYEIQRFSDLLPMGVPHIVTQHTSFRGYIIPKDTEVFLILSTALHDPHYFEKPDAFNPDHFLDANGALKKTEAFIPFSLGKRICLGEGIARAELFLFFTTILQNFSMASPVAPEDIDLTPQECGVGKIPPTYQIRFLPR

Hepatitis B virus [5] = assay: Antiviral activity against HBV genotype D in immuno-competent C57BL/6 mouse model of chronic HBV assessed as log10 reduction in serum HBsAg production at 10 mg/kg, po qd for 14 days measured 24 hrs post-last dose by EIA relative to control; assay type: functional; conditions: time 15 day
[6] = Drug concentration in Beagle dog kidney at 10 mg/kg, po measured for 12 hrs by LC-MS/MS analysis; assay type: ADME, organism-based, Canis lupus familiaris; conditions: read-out: Ct
[7] = Ratio of drug concentration in kidney to plasma of Beagle dog at 10 mg/kg, po measured for 12 hrs by LC-MS/MS analysis; assay type: ADME, organism-based, Canis lupus familiaris; conditions: kidney (relative to plasma)
[8] = Plasma protein binding in monkey assessed as unbound fraction at 2 uM incubated for 6 hrs by equilibrium dialysis; assay type: ADME, cell-free, Macaca mulatta; conditions: rhesus monkey
[9] = Plasma protein binding in human assessed as unbound fraction at 2 uM incubated for 6 hrs by equilibrium dialysis; assay type: ADME, cell-free
Hepatitis B virus [10] = assay: Antiviral activity against HBV infected in human HepG2.2.15 cells assessed as reduction in HBsAg level incubated for 6 days with media and compound replenishment on third day by CLIA; assay type: functional, organism-based; conditions: HepG2.2.15, 144 h; for EC90: time 6 day
Hepatitis B virus [11] = assay: Antiviral activity against HBV genotype D in immuno-competent C57BL/6 mouse model of chronic HBV assessed as log10 reduction in serum HBsAg production at 1 mg/kg, po qd for 14 days measured 24 hrs post-last dose by EIA relative to control; assay type: functional; conditions: time 15 day
[12] = Ratio of drug concentration in liver to plasma of CD-1 mouse at 10 mg/kg, po measured for 24 hrs by LC-MS/MS analysis; assay type: ADME, organism-based; conditions: liver and plasma
[13] = Ratio of total drug concentration in liver to plasma in CD-1 mouse at 10 mg/kg, po measured for 24 hrs by LC-MS/MS analysis; assay type: ADME, organism-based; conditions: CD-1, mouse, liver and plasma
Hepatitis B virus [14] = assay: Antiviral activity against HBV infected in human HepG2.2.15 cells assessed as reduction in HBsAg level incubated for 6 days with media and compound replenishment on third day in presence of 40 percent mouse serum by CLIA; assay type: functional, organism-based; conditions: HepG2.2.15, 144 h
[15] = Selectivity ratio of drug concentration in liver in CD-1 mouse at 10 mg/kg, po measured for 24 hrs to EC90 for antiviral activity against HBV infected in human HepG2.2.15 cells assessed as reduction in HBsAg level; assay type: ADME, organism-based; conditions: in vivo
[16] = Drug concentration in Beagle dog liver at 10 mg/kg, po measured for 12 hrs by LC-MS/MS analysis; assay type: ADME, organism-based, Canis lupus familiaris; conditions: read-out: Ct
[17] = Plasma protein binding in mouse assessed as unbound fraction at 2 uM incubated for 6 hrs by equilibrium dialysis; assay type: ADME, cell-free
[18] = Permeability across basal to apical side in human Caco-2 cells at 5 uM incubated for 120 mins by LC-MS/MS analysis; assay type: ADME, cell-based; conditions: read-out: permeability
[19] = Kinetic solubility of compound in aqueous buffer at pH 7.4 at 200 uM incubated for 24 hrs by UPLC UV analysis; assay type: physicochemical; conditions: read-out: Kinetic_solubility
[20] = AUC (0 to 24 hrs) in CD-1 mouse at 10 mg/kg, po measured for 24 hrs by LC-MS/MS analysis; assay type: ADME, organism-based; conditions: in vivo
[21] = Metabolic stability in CD-1 mouse liver microsomes assessed as clearance at 0.3 uM preincubated for 5 mins followed by NADPH addition measured upto 60 mins by LC-MS/MS analysis; assay type: ADME, Microsome; conditions: time < 65 min, read-out: CLH
[22] = Cytotoxicity in human HepG2.2.15 cells by Cell Titer-Glo assay; assay type: toxicity, cell-based, HepG2 2.2.15
[23] = Drug concentration in Beagle dog plasma at 10 mg/kg, po measured for 12 hrs by LC-MS/MS analysis; assay type: ADME, organism-based, Canis lupus familiaris; conditions: read-out: Ct
[24] = Permeability across apical to basal side in human Caco-2 cells at 5 uM incubated for 120 mins by LC-MS/MS analysis; assay type: ADME, cell-based; conditions: read-out: permeability
[25] = Drug concentration in CD-1 mouse plasma at 10 mg/kg, po measured for 24 hrs by LC-MS/MS analysis; assay type: ADME, organism-based; conditions: read-out: Ct
[26] = Drug concentration in CD-1 mouse liver at 10 mg/kg, po measured for 24 hrs by LC-MS/MS analysis; assay type: ADME, organism-based; conditions: read-out: Ct
[27] = Ratio of drug concentration in liver to plasma of Beagle dog at 10 mg/kg, po measured for 12 hrs by LC-MS/MS analysis; assay type: ADME, organism-based, Canis lupus familiaris; conditions: liver (relative to plasma)
[28] = Drug concentration in Beagle dog lung at 10 mg/kg, po measured for 12 hrs by LC-MS/MS analysis; assay type: ADME, organism-based, Canis lupus familiaris; conditions: read-out: Ct
[29] = Kinetic solubility of compound in aqueous buffer at pH 4 at 200 uM incubated for 24 hrs by UPLC UV analysis; assay type: physicochemical; conditions: read-out: Kinetic_solubility
[30] = Selectivity ratio of drug concentration in liver in CD-1 mouse at 10 mg/kg, po measured for 12 hrs to EC90 for antiviral activity against HBV infected in human HepG2.2.15 cells assessed as reduction in HBsAg level; assay type: ADME, organism-based; conditions: in vivo
[31] = Plasma protein binding in rat assessed as unbound fraction at 2 uM incubated for 6 hrs by equilibrium dialysis; assay type: ADME, cell-free

SMILES | microsomal CLint at 0.3 µM [1] [µL/min/mg] | microsomal CLint at 0.3 µM [2] [µL/min/mg] | Kp at 12 h [3] | microsomal CLint at 0.3 µM [4] [µL/min/mg] | IC50 (Cytochrome P450 2B6) [nM] | log(activity) (Hepatitis B virus [5]) | concentration at 12 h [6] [ng/g] | Kp at 12 h [7] | fraction unbound at 6 h, 2 µM [8] | fraction unbound at 6 h, 2 µM [9] | EC50 (Hepatitis B virus [10]) [nM] | EC90 (Hepatitis B virus [10]) [nM] | log(activity) (Hepatitis B virus [11]) | Kp at 24 h [12] | Kp at 24 h [13] | EC50 (Hepatitis B virus [14]) [nM] | Ratio [15] | concentration at 12 h [16] [ng/g] | fraction unbound at 6 h, 2 µM [17] | Papp B→A at 2 h, 5 µM [18] [×10⁻⁶ cm/s] | other results
COc1cc(OC(F)F)c2nc3c(n2c1)C[C@@H](C(C)(C)C)c1cc(C(=O)O)c(=O)[nH]c1-3 | 3 | 2 | 0.5 | 4 | > 25000 | 0.71 | 1180 | 4.3 | 0.02 | 0.05 | 2.2 | 28 | 0.34 | 184 | 184 | 40 | 662 | 2910 | 0.02 | 54.5 | solubility kinetic at 24 h, 200 µM [19]: 183 µM (≈ 79.3 µg/mL); AUC(0-t) at 24 h [20]: 18900 ng·h/mL; microsomal CLint at 0.3 µM [21]: 7 µL/min/mg; CC50 [22]: > 50000 nM; concentration at 12 h [23]: 272 ng/g; Papp A→B at 2 h, 5 µM [24]: 4.4 ×10⁻⁶ cm/s; concentration at 24 h [25]: 56.8 ng/g; concentration at 24 h [26]: 10400 ng/g; Kp at 12 h [27]: 11; concentration at 12 h [28]: 135 ng/g; solubility kinetic at 24 h, 200 µM [29]: 43 µM (≈ 18.6 µg/mL); Ratio [30]: 1675; fraction unbound at 6 h, 2 µM [31]: 0.06
COCCCOc1cc2c(nc1OC)-c1cc(=O)c(C(=O)O)cn1[C@H](C(C)C)C2 | 3 | 5 | 1.3 | 2 | 21000 | 1 | 129 | 2.7 | 0.58 | 0.55 | 1.3 | 13 | 0.81 | 3 | 3 | 7.8 | 4 | 140 | 0.66 | 43.8 | solubility kinetic at 24 h, 200 µM [19]: 175 µM (≈ 70.4 µg/mL); AUC(0-t) at 24 h [20]: 4770 ng·h/mL; microsomal CLint at 0.3 µM [21]: 3 µL/min/mg; CC50 [22]: > 50000 nM; concentration at 12 h [23]: 48.3 ng/g; Papp A→B at 2 h, 5 µM [24]: 11.5 ×10⁻⁶ cm/s; concentration at 24 h [25]: 29 ng/g; concentration at 24 h [26]: 87 ng/g; Kp at 12 h [27]: 2.9; concentration at 12 h [28]: 63 ng/g; solubility kinetic at 24 h, 200 µM [29]: 190 µM (≈ 76.5 µg/mL); Ratio [30]: 191; fraction unbound at 6 h, 2 µM [31]: 0.46
CC(C)(C)[C@@H]1Cc2c(nc3c(C(F)(F)F)cc(C4CC4)cn23)-c2[nH]c(=O)c(C(=O)O)cc21 | 5 | 4 | 0.7 | 1 | > 25000 | 1.07 | 347 | 3.2 | 0.02 | 0.05 | 0.6 | 6.1 | 0.47 | 67 | 67 | 6.8 | 2089 | 275 | 0.01 | 65.6 | solubility kinetic at 24 h, 200 µM [19]: 154 µM (≈ 68.6 µg/mL); AUC(0-t) at 24 h [20]: 20500 ng·h/mL; microsomal CLint at 0.3 µM [21]: 1 µL/min/mg; CC50 [22]: 48000 nM; concentration at 12 h [23]: 110 ng/g; Papp A→B at 2 h, 5 µM [24]: 26.6 ×10⁻⁶ cm/s; concentration at 24 h [25]: 85.6 ng/g; concentration at 24 h [26]: 5740 ng/g; Kp at 12 h [27]: 2.5; concentration at 12 h [28]: 73 ng/g; solubility kinetic at 24 h, 200 µM [29]: 39 µM (≈ 17.4 µg/mL); Ratio [30]: 12480; fraction unbound at 6 h, 2 µM [31]: 0.02
